Consider 16 compounds from patent publication US10752587B2, “Homobispiperidinyl derivatives as liver X receptor beta agonists, compositions and their use” (Merck Sharp & Dohme Corp., priority 2015, dated 2020).

For experiment [1], the target named is T1, glutathione-S-transferase (GST) tagged LXRbeta LBD (ligand binding domain) (Homo sapiens, UniProt P55055).
T1 construct: purchased Invitrogen pv4658.pps
T1 sequence (P55055 222-460 limits assumed): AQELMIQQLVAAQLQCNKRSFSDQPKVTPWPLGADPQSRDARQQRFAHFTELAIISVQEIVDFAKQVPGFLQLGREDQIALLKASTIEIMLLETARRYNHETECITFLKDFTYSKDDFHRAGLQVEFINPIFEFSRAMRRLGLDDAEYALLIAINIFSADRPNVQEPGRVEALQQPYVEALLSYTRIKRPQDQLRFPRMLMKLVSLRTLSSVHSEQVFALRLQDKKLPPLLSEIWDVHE
As to the kind of experiment: LanthaScreen TR-FRET Liver X Receptor Coactivator Assay, co-activator recruitment to LXRbeta LBD. The conditions noted are these: for Emax: read-out: LXR beta Activity @ max dose (%); for EC50: potency (Inflection Point, IP), co-activator recruitment to LXRbeta LBD, in relation to T0901317. It counts as biochemical. The essentials:
(§1)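 Compound-induced coactivator recruitment by the GST-fused ligand binding domain, detected as TR-FRET between Tb-labelled anti-GST antibody and fluorescein-tagged coactivator peptide after room-temperature incubation. IP and Emax expressed versus T0901317 as reference agonist.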
For orientation: TR-FRET usually uses a lanthanide donor and a delayed reading to cut background.

The target of experiment [2] is T2, glutathione-S-transferase (GST) tagged LXRalpha LBD (ligand binding domain) (Homo sapiens, UniProt Q13133).
T2 construct: purchased Invitrogen pv4655
T2 sequence (Q13133 209-447 limits assumed): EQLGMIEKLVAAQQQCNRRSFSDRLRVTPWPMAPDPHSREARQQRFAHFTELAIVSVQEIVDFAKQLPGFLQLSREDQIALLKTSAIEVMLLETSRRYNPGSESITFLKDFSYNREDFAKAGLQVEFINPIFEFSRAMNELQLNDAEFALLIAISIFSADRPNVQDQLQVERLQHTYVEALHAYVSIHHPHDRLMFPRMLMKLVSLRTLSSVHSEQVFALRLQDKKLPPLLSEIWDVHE
As to the kind of experiment: LanthaScreen TR-FRET Liver X Receptor Coactivator Assay, co-activator recruitment to LXRalpha LBD. The format is biochemical. The conditions noted are these: for Emax: read-out: LXR alpha Activity @ max dose (%); for EC50 / LXR alpha IP (nM): potency (Inflection Point, IP), co-activator recruitment to LXRalpha LBD, in relation to T0901317; for EC50: read-out: LXR alpha IP. An outline of the steps: as §1

The mark [3] stands for this setting: efficacy at max dose, in relation to reference dual agonist T0901317.

The structures appear in SMILES notation. Read-outs that look alike come from different tables or passages of the source.

With `CNC(=O)c1ccc(N2CCC(CC3CCN(C(=O)C(O)(c4cccnc4)C(F)(F)F)CC3)CC2)nc1Cl` (stereo not shown) [Example 7-142, 2-chloro-N-methyl-6-(4-{[1-(3,3,3-trifluoro-2-hydroxy-2-pyridin-3-ylpropanoyl)piperidin-4-yl]methyl}piperidin-1-yl)pyridine-3-carboxamide], the results for the Emax in experiment [1] (setting [3]) and in experiment [2] (setting [3]) were 133% and 81%, respectively. Further, the EC50 turned out to be 99 nM in experiment [1] (read-out: LXR beta IP) and 2550 nM in experiment [2].
Turning to `CNC(=O)c1ccc(N2CCC(CC3CCN(C(=O)C(O)(C(C)C)C(F)(F)F)CC3)CC2)nc1Cl` (stereo not shown) [Example 7-143, 2-chloro-6-[4-({1-[2-hydroxy-3-methyl-2-(trifluoromethyl)butanoyl]piperidin-4-yl}methyl)piperidin-1-yl]-N-methylpyridine-3-carboxamide], the Emax is 104% in experiment [1] (setting [3]) and 58% in experiment [2] (setting [3]). Moreover, the EC50 worked out at 327 nM in experiment [1] (read-out: LXR beta IP) and 1310 nM in experiment [2].
For `CNC(=O)c1ccc(N2CCC(CC3CCN(C(=O)C(O)(c4cccc(C#N)c4)C(F)(F)F)CC3)CC2)nc1Cl` (stereo not shown) [Example 7-144, 2-chloro-6-[4-({1-[2-(3-cyanophenyl)-3,3,3-trifluoro-2-hydroxypropanoyl]piperidin-4-yl}methyl)piperidin-1-yl]-N-methylpyridine-3-carboxamide] the same measures were 107%, 61%, 20 nM and 215 nM.
For `CNC(=O)c1ccc(N2CCC(CC3CCN(C(=O)[C@](O)(c4ccccc4F)C(F)(F)F)CC3)CC2)nc1Cl` [Example 7-145, 2-chloro-N-methyl-6-[4-({1-[(2R)-3,3,3-trifluoro-2-(2-fluorophenyl)-2-hydroxypropanoyl]piperidin-4-yl}methyl)piperidin-1-yl]pyridine-3-carboxamide] the same measures were 115%, 47%, 23 nM and 791 nM.
For `CNC(=O)c1ccc(N2CCC(CC3CCN(C(=O)[C@](O)(c4cccc(Br)c4)C(F)(F)F)CC3)CC2)nc1Cl` [Example 7-146, 6-[4-({1-[(2R)-2-(3-bromophenyl)-3,3,3-trifluoro-2-hydroxypropanoyl]piperidin-4-yl}methyl)piperidin-1-yl]-2-chloro-N-methylpyridine-3-carboxamide] the same measures were 113%, 51%, 9 nM and 127 nM.
In the case of `CNC(=O)c1ccc(N2CCC(CC3CCN(C(=O)[C@](O)(c4cccc(Cl)c4)C(F)(F)F)CC3)CC2)nc1Cl` [Example 7-147, 2-chloro-6-[4-({1-[(2R)-2-(3-chlorophenyl)-3,3,3-trifluoro-2-hydroxypropanoyl]piperidin-4-yl}methyl)piperidin-1-yl]-N-methylpyridine-3-carboxamide], the results for the Emax in experiment [1] (setting [3]) and in experiment [2] (setting [3]) were 100% and 63%, respectively. Further, the EC50 worked out at 4 nM in experiment [1] (read-out: LXR beta IP) and 51 nM in experiment [2].
For `CCc1cccc([C@@](O)(C(=O)N2CCC(CC3CCN(c4ccc(C(=O)NC)c(Cl)n4)CC3)CC2)C(F)(F)F)c1` [Example 7-148, 2-chloro-6-[4-({1-[(2R)-2-(3-ethylphenyl)-3,3,3-trifluoro-2-hydroxypropanoyl]piperidin-4-yl}methyl)piperidin-1-yl]-N-methylpyridine-3-carboxamide], the Emax in experiment [1] (setting [3]) stood at 65%; in experiment [2] (setting [3]), 24%. Besides, the EC50 was found to be 12 nM in experiment [1] (read-out: LXR beta IP) and 120 nM in experiment [2].
For `CNC(=O)c1ccc(N2CCC(CC3CCN(C(=O)[C@](O)(c4cccc(C(C)C)c4)C(F)(F)F)CC3)CC2)nc1Cl` [Example 7-149, 2-chloro-N-methyl-6-{4-[(1-{(2R)-3,3,3-trifluoro-2-hydroxy-2-[3-(1-methylethyl)phenyl]propanoyl}piperidin-4-yl)methyl]piperidin-1-yl}pyridine-3-carboxamide] the same measures were 91%, 32%, 17 nM and 163 nM.
Consider `CNC(=O)c1ccc(N2CCC(CC3CCN(C(=O)[C@](O)(c4cccc(C(F)(F)F)c4)C(F)(F)F)CC3)CC2)nc1Cl` [Example 7-150, 2-chloro-N-methyl-6-{4-[(1-{(2R)-3,3,3-trifluoro-2-hydroxy-2-[3-(trifluoromethyl)phenyl]propanoyl}piperidin-4-yl)methyl]piperidin-1-yl}pyridine-3-carboxamide], for which the Emax was determined as 84% in experiment [1] (setting [3]) and 42% in experiment [2] (setting [3]). Further, the results for the EC50 in experiment [1] (read-out: LXR beta IP) and in experiment [2] were 24 nM and 256 nM, respectively.
As for `CNC(=O)c1ccc(N2CCC(CC3CCN(C(=O)[C@](O)(c4cccc(C)c4)C(F)(F)F)CC3)CC2)nc1Cl` [Example 7-151, 2-chloro-N-methyl-6-[4-({1-[(2R)-3,3,3-trifluoro-2-hydroxy-2-(3-methylphenyl)propanoyl]piperidin-4-yl}methyl)piperidin-1-yl]pyridine-3-carboxamide], the Emax in experiment [1] (setting [3]) turned out to be 81%; in experiment [2] (setting [3]), 34%. Besides, the EC50 in experiment [1] (read-out: LXR beta IP) was 7 nM; in experiment [2] it was 121 nM.
In the same order, the values of `CNC(=O)c1ccc(N2CCC(CC3CCN(C(=O)[C@](O)(c4cccc(F)c4)C(F)(F)F)CC3)CC2)nc1Cl` [Example 7-152, 2-chloro-N-methyl-6-[4-({1-[(2R)-3,3,3-trifluoro-2-(3-fluorophenyl)-2-hydroxypropanoyl]piperidin-4-yl}methyl)piperidin-1-yl]pyridine-3-carboxamide] are 127%, 58%, 6 nM and 69 nM.
On to `COc1cccc([C@@](O)(C(=O)N2CCC(OC3CCN(c4ccc(C(=O)N(C)C)c(Cl)n4)CC3)CC2)C(F)(F)F)c1` [Example 7-153, 2-chloro-N,N-dimethyl-6-[4-({1-[(2R)-3,3,3-trifluoro-2-hydroxy-2-(3-methoxyphenyl)propanoyl]piperidin-4-yl}oxy)piperidin-1-yl]pyridine-3-carboxamide], for which the Emax in experiment [1] (setting [3]) was found to be 100%; in experiment [2] (setting [3]) it was 29%. Besides, the EC50 in experiment [1] (read-out: LXR beta IP) came to 25 nM; in experiment [2], 890 nM.
In the case of `COc1cccc([C@@](O)(C(=O)N2CCC(OC3CCN(c4ccc(C(=O)N(C)C)c(OC)n4)CC3)CC2)C(F)(F)F)c1` [Example 7-154, 2-methoxy-N,N-dimethyl-6-[4-({1-[(2R)-3,3,3-trifluoro-2-hydroxy-2-(3-methoxyphenyl)propanoyl]piperidin-4-yl}oxy)piperidin-1-yl]pyridine-3-carboxamide], the Emax in experiment [1] (setting [3]) is 93%; in experiment [2] (setting [3]) it was 34%. Besides, the figures for the EC50 in experiment [1] (read-out: LXR beta IP) and in experiment [2] were 47 nM and 2940 nM, respectively.
For the compound `CN(C)C(=O)c1ccc(N2CCC(OC3CCN(C(=O)N4CC(O)(C(F)(F)F)C4)CC3)CC2)cc1Cl` [Example 8-1, 2-chloro-4-(4-((1-(3-hydroxy-3-(trifluoromethyl)azetidine-1-carbonyl)piperidin-4-yl)oxy)piperidin-1-yl)-N,N-dimethylbenzamide], the Emax was 18% in experiment [1] (setting [3]) and 2% in experiment [2] (setting [3]). Also, in experiment [1] (read-out: LXR beta IP), the EC50 came out at 30000 nM. In addition, in experiment [2], the “LXR alpha IP (nM)” value was “NO IP”.
Turning to `CN(C)C(=O)c1ccc(N2CCC(SC3CCN(C(=O)[C@](O)(c4cccc(OC(F)(F)F)c4)C(F)(F)F)CC3)CC2)nc1Cl` [Example 9-1, (R)-2-chloro-N,N-dimethyl-6-(4-(1-(3,3,3-trifluoro-2-hydroxy-2-(3-(trifluoromethoxy)phenyl)propanoyl)piperidin-4-ylthio)piperidin-1-yl)nicotinamide], the EC50 in experiment [1] (LXR beta IP (nM)) came to 13 nM; in experiment [2], 546 nM. Further, the Emax in experiment [1] came to 60%; in experiment [2] it was 21%.
With `COc1cccc([C@@](O)(C(=O)N2CCC(SC3CCN(c4ccc(C(=O)N(C)C)c(Cl)n4)CC3)CC2)C(F)(F)F)c1` [Example 9-2, 2-chloro-N,N-dimethyl-6-[4-({1-[(2R)-3,3,3-trifluoro-2-hydroxy-2-(3-methoxyphenyl)-propanoyl]piperidin-4-yl}sulfanyl)-piperidin-1-yl]-pyridine-3-carboxamide], the Emax was determined as 70% in experiment [1] (setting [3]) and 7% in experiment [2] (setting [3]). Further, the EC50 in experiment [1] (read-out: LXR beta IP) was 14 nM. In addition, the “LXR alpha IP (nM)” value in experiment [2] is “NO IP”.
